What was measured:
Type in all cases: in vivo
soybean (Glycine max) = assay: Test B pre-/postemergence plant response
Summary of the method: (§1)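 Preemergence and postemergence (plants 2-18 cm, 1- to 4-leaf stage) applications used test chemicals in a non-phytotoxic solvent with surfactant. Plants were held in a greenhouse 13 to 15 days, then rated visually against controls on a 0-100 scale (0 no effect, 100 complete control).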

[1] = tested on: cocklebur (Xanthium strumarium); assay: Test B pre-/postemergence plant response; details: for Cocklebur plant response rating: 8 g ai/ha
Summary of the method: as §1

[2] = tested on: goosegrass (Eleusine indica); assay: Test B pre-/postemergence plant response
Summary of the method: as §1

[3] = tested on: bermudagrass (Cynodon dactylon); assay: Test B pre-/postemergence plant response; details: for Bermudagrass plant response rating: 8 g ai/ha
Summary of the method: as §1

[4] = tested on: large crabgrass (Digitaria sanguinalis); assay: Test B pre-/postemergence plant response
Summary of the method: as §1

[5] = tested on: Italian ryegrass (Lolium multiflorum); assay: Test B pre-/postemergence plant response
Summary of the method: as §1

[6] = tested on: Russian thistle (Salsola iberica); assay: Test B pre-/postemergence plant response; details: Preemergence; for Russian Thistle plant response rating: scale 0 to 100
Summary of the method: as §1

[7] = tested on: velvetleaf (Abutilon theophrasti); assay: Test B pre-/postemergence plant response
Summary of the method: as §1

[8] = tested on: lambsquarters (Chenopodium album); assay: Test B pre-/postemergence plant response
Summary of the method: as §1

[9] = tested on: common ragweed (Ambrosia elation); assay: Test B pre-/postemergence plant response
Summary of the method: as §1

[10] = tested on: ducksalad (Heteranthera limosa); assay: Test B flooded paddy test plant response
Summary of the method: (§2)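 Rice, umbrella sedge, ducksalad and barnyardgrass at 2-leaf stage; pots flooded to 3 cm, compounds applied into paddy water, depth held throughout. Greenhouse 13 to 15 days, then visual rating vs untreated controls on 0–100 scale (0 no effect, 100 complete control); dash means no test result.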

[11] = tested on: barnyardgrass (Echinochloa crus-galli); assay: Test B flooded paddy test plant response
Summary of the method: as §2

rice (Oryza sativa) = assay: Test B flooded paddy test plant response
Summary of the method: as §2

[12] = tested on: umbrella sedge (Cyperus difformis); assay: Test B flooded paddy test plant response
Summary of the method: as §2

[13] = 8 g ai/ha, postemergence, 0-100 scale
[14] = Postemergence, 16 g ai/ha, scale 0 to 100
[15] = Postemergence, 31 g ai/ha, scale 0 to 100
[16] = Postemergence, 62 g ai/ha, scale 0 to 100, 0 no effect, 100 complete control
[17] = Preemergence, 62 g ai/ha, 0 to 100 scale, 0 no effect, 100 complete control
[18] = Preemergence, 8 g ai/ha, scale 0 to 100
[19] = Preemergence, 16 g ai/ha, scale 0 to 100
[20] = Preemergence, 16 g ai/ha, scale 0 to 100 (0 no effect, 100 complete control)
[21] = Preemergence, 31 g ai/ha, scale 0 to 100 (0 no effect, 100 complete control)
[22] = Flood (flooded paddy test), 62 g ai/ha, scale 0 to 100, 0 no effect, 100 complete control
[23] = Flood (flooded paddy test), 125 g ai/ha, scale 0 to 100, 0 no effect, 100 complete control
[24] = Flood (flooded paddy test), 250 g ai/ha, scale 0 to 100, 0 no effect, 100 complete control
[25] = Flood, 31 g ai/ha, scale 0 to 100

SMILES: CCCC(=O)Oc1cnn(C)c(=O)c1-n1nc(-c2ccc(Cl)cc2)cc1C [Compound 56]
- Soybean plant response rating (soybean (Glycine max); [13]): 0
- Plant response rating, Soybean (soybean (Glycine max); [14]): 0
- Plant response rating, Soybean (soybean (Glycine max); [15]): 0
- Plant response rating, Soybean (soybean (Glycine max); [16]): 0
- Plant response rating, Soybean (soybean (Glycine max); [17]): 0
- Soybean plant response rating (soybean (Glycine max); [18]): 0
- Soybean plant response rating (soybean (Glycine max); [19]): 0
- Cocklebur plant response rating ([1]; postemergence, 0-100 scale): 0
- Plant response rating, Cocklebur [1, 14]: 0
- Plant response rating, Cocklebur [1, 15]: 0
- Plant response rating, Cocklebur [1, 16]: 0
- Plant response rating, Cocklebur [1, 20]: 0
- Plant response rating, Cocklebur [1, 21]: 0
- Plant response rating, Cocklebur [1, 17]: 0
- Cocklebur plant response rating ([1]; Preemergence, scale 0 to 100): 0
- Goosegrass plant response rating [2, 13]: 60
- Plant response rating, Goosegrass [2, 14]: 65
- Plant response rating, Goosegrass [2, 15]: 75
- Plant response rating, Goosegrass [2, 16]: 98
- Plant response rating, Goosegrass [2, 21]: 98
- Plant response rating, Goosegrass [2, 17]: 100
- Goosegrass plant response rating [2, 18]: 75
- Goosegrass plant response rating [2, 19]: 80
- Bermudagrass plant response rating ([3]; postemergence, 0-100 scale): 65
- Plant response rating, Bermudagrass [3, 14]: 70
- Plant response rating, Bermudagrass [3, 15]: 95
- Plant response rating, Bermudagrass [3, 16]: 100
- Bermudagrass plant response rating ([3]; Preemergence, scale 0 to 100 (0 no effect, 100 complete control)): 85
- Plant response rating, Bermudagrass [3, 20]: 100
- Plant response rating, Bermudagrass [3, 21]: 100
- Plant response rating, Bermudagrass [3, 17]: 100
- Crabgrass, Large plant response rating [4, 13]: 65
- Plant response rating, Crabgrass, Large [4, 14]: 85
- Plant response rating, Crabgrass, Large [4, 15]: 95
- Plant response rating, Crabgrass, Large [4, 16]: 100
- Plant response rating, Crabgrass, Large [4, 21]: 100
- Plant response rating, Crabgrass, Large [4, 17]: 100
- Crabgrass, Large plant response rating [4, 18]: 0
- Crabgrass, Large plant response rating [4, 19]: 60
- Ryegrass, Italian plant response rating [5, 13]: 0
- Plant response rating, Ryegrass, Italian [5, 14]: 40
- Plant response rating, Ryegrass, Italian [5, 15]: 60
- Plant response rating, Ryegrass, Italian [5, 16]: 65
- Plant response rating, Ryegrass, Italian [5, 21]: 98
- Plant response rating, Ryegrass, Italian [5, 17]: 100
- Ryegrass, Italian plant response rating [5, 18]: 60
- Ryegrass, Italian plant response rating [5, 19]: 98
- Plant response rating, Russian Thistle ([6]; 31 g ai/ha, scale 0 to 100 (0 no effect, 100 complete control)): 0
- Plant response rating, Russian Thistle ([6]; 62 g ai/ha, 0 to 100 scale, 0 no effect, 100 complete control): 0
- Russian Thistle plant response rating ([6]; 8 g ai/ha): 0
- Russian Thistle plant response rating ([6]; 16 g ai/ha): 0
- Velvetleaf plant response rating [7, 13]: 0
- Plant response rating, Velvetleaf [7, 14]: 0
- Plant response rating, Velvetleaf [7, 15]: 0
- Plant response rating, Velvetleaf [7, 16]: 0
- Plant response rating, Velvetleaf [7, 21]: 0
- Plant response rating, Velvetleaf [7, 17]: 0
- Velvetleaf plant response rating [7, 18]: 0
- Velvetleaf plant response rating [7, 19]: 0
- Lambsquarters plant response rating [8, 13]: 0
- Plant response rating, Lambsquarters [8, 14]: 0
- Plant response rating, Lambsquarters [8, 15]: 0
- Plant response rating, Lambsquarters [8, 16]: 0
- Plant response rating, Lambsquarters [8, 21]: 0
- Plant response rating, Lambsquarters [8, 17]: 20
- Lambsquarters plant response rating [8, 18]: 0
- Lambsquarters plant response rating [8, 19]: 0
- Ragweed plant response rating [9, 13]: 0
- Plant response rating, Ragweed [9, 14]: 0
- Plant response rating, Ragweed [9, 15]: 0
- Plant response rating, Ragweed [9, 16]: 0
- Plant response rating, Ragweed [9, 21]: 0
- Plant response rating, Ragweed [9, 17]: 0
- Ragweed plant response rating [9, 18]: 0
- Ragweed plant response rating [9, 19]: 0
- Plant response rating, Ducksalad [10, 22]: 0
- Plant response rating, Ducksalad [10, 23]: 40
- Plant response rating, Ducksalad [10, 24]: 75
- Plant response rating, Ducksalad [10, 25]: 0
- Plant response rating, Barnyardgrass [11, 22]: 0
- Plant response rating, Barnyardgrass [11, 23]: 20
- Plant response rating, Barnyardgrass [11, 24]: 60
- Plant response rating, Barnyardgrass [11, 25]: 0
- Plant response rating, Rice (rice (Oryza sativa); [22]): 0
- Plant response rating, Rice (rice (Oryza sativa); [23]): 0
- Plant response rating, Rice (rice (Oryza sativa); [24]): 10
- Plant response rating, Rice (rice (Oryza sativa); [25]): 0
- Plant response rating, Sedge, Umbrella [12, 22]: 75
- Plant response rating, Sedge, Umbrella [12, 23]: 85
- Plant response rating, Sedge, Umbrella [12, 24]: 85
- Plant response rating, Sedge, Umbrella [12, 25]: 70
